Consider one substance from US20120308570A1, “METHODS FOR TREATING DISEASES” (priority 2009, published 2012).

What all share (assay type): cell-based, mouse
In data set [1] the test system is Spsb1 mRNA. Put plainly: Spsb1 knockdown in BMDM by Q-PCR. The conditions noted are these: 10 ng/ml LPS 4 h, compared to non-sense control shRNA, p<0.0001. How it is done:
Bone marrow-derived macrophages were generated as described and replated at 1.0×10^6 cells/well on 6-well plates (Costar) in DME containing 10% FCS and 20% L-cell conditioned media. The following day, triplicate cultures were incubated with murine IFNγ (10 ng/ml) and LPS (20 ng/ml), unless otherwise indicated. Total cellular RNA was isolated using the RNeasy kit (QIAGEN, Valencia, Calif.) and first strand cDNA synthesis performed using Superscript II RNASE H— reverse transcriptase (Invitrogen, Carlsbad, Calif.) according to the manufacturer's instructions. Real-time PCR was performed on an ABI Prism 7900HT sequence detection system (Applied Biosystems, Foster City, Calif.). Cycling conditions were as follows: initial denaturation (95° C. for 15 min), followed by 40 cycles of 94° C. for 15 s, 50° C. (SSB-1, -4), 60° C. (SSB-2, -3) or 49° C. (GAPDH) for 30 s and 72° C. for 15 s with a transition rate of 20° C./s and a single fluorescence measurement, melting curve program (60° C.-95° C., with a heating rate of 0.1° C./s and continuous fluorescence measurement) and a final cooling step to 40° C. All PCR reactions were performed using the QuantiTect SYBR Green PCR Kit (QIAGEN) in 10 μl reactions containing […] of forward and reverse primers, 5 μl of QuantiTect Master Mix and 4 μl of cDNA (diluted 1 in 5). […]

In data set [2] the test system is iNOS protein in BMDM. As to the kind of experiment: iNOS expression in shRNA infected BMDM (Western blot). On the procedure: Bone marrow-derived macrophages were generated as described and re-plated at 1.0×10^6 cells/well on 6-well plates (Costar) in DME containing 10% FCS and 20% L-cell conditioned media. Cells were incubated with IFNγ and LPS as described, and lysed in KALB lysis buffer (Nicholson et al., 1995) containing protease inhibitors (Complete Cocktail tablets, Roche), 1 mM phenylmethylsulphonyl fluoride, 1 mM Na3VO4 and 1 mM NaF. Proteins were immunoprecipitated using anti-Flag antibody conjugated to Sepharose (M2; EASTMAN KODAK). Proteins were separated by sodium dodecyl sulphatepolyacrylamide gel electrophoresis (SDS-PAGE) under reducing conditions and electrophoretically transferred to Biotrace PVDF membranes (Pall Corp. Ann Arbor, Mich.). Membranes were blocked overnight in 10% w/v skim milk and incubated with primary antibody for 2 h. Antibody binding was visualized with either peroxidase-conjugated goat anti-rat immunoglobulin (Southern Biotech) or peroxidase-conjugated sheep anti-rabbit immunoglobulin (Chemicon, Melbourne, Australia), and the enhanced chemiluminescence (ECL) system (Amersham, Little Chalfont, Buckinghamshire, UK). To re-blot, the membrane was first stripped of antibodies in 0.1 M glycine, pH 2.9.
Oligonucleotides targeting SPSB 1 ([…] (SEQ ID NO:84)) were designed as previously described (27). shRNAmir constructs were created by annealing the oligonucleotides in 5× annealing buffer (0.5 M potassium acetate, 0.01 M magnesium acetate and 0.15 M HEPES pH 7.4) for 5 min at 95° C., followed by incubation for 10 min at 80° C. and a 5-7 h ramp from 80° C. to 4° C. (reducing by 0.5° C. every 2.5 min). Annealed oligonucleotides were subsequently subcloned into the LMP vector (Dickins et al; 2005 & 2006). Non-sense shRNAmir and luciferase control constructs in the LMS vector were a kind gift from Dr. Marnie Blewitt (Majewski et al, 2008) and Dr Ross Dickins (unpublished data) respectively. To create retrovirus, 293T cells were transfected as described previously (Majewski et al, 2008). The medium was replaced with DMEM containing 10% FBS and 20% L-cell conditioned medium 24 h after transfection and viral supernatants harvested the following day. Total bone marrow was collected and non-adherent haematopoietic cells were harvested by centrifugation and red blood cells removed by washing in red cell removal buffer (154.4 mM NH4Cl, 0.1 mM EDTA, 12 mM. NaHCO3). Retroviral supernatants were applied to culture dishes pre-treated with 32 μg/ml RetroNectin (Takara Biosciences, Shiga, Japan) and centrifuged for 1 h at 4000 g at 4° C. […]
To analyse the kinetics of iNOS induction in BMDM infected with an Spsb1 shRNA construct cells were stimulated with 100 ng/ml LPS or 25 μg/ml PolyIC for various times, then lysed and iNOS expression analysed by Western blot. […]

For data set [3], the system named is NO production in BMDM. As to the kind of experiment: Nitric oxide production in shRNA infected BMDM (Griess assay). How it is done:
As a measure of nitric oxide production, 100 μl of culture supernatants were assayed for nitrite by reaction with 10 μl of Griess reagent A (1% sulfanilamide in 5% phosphoric acid) for 10 min at room temperature, followed by the addition of 10 μl Griess reagent B [0.14% N-(1-naphthyl)ethylenediamine dihydrochloride], and nitrite content determined essentially as described (Scott et al., 2000).
Oligonucleotides targeting SPSB 1 ([…] (SEQ ID NO:84)) were designed as previously described (27). shRNAmir constructs were created by annealing the oligonucleotides in 5× annealing buffer (0.5 M potassium acetate, 0.01 M magnesium acetate and 0.15 M HEPES pH 7.4) for 5 min at 95° C., followed by incubation for 10 min at 80° C. and a 5-7 h ramp from 80° C. to 4° C. (reducing by 0.5° C. every 2.5 min). Annealed oligonucleotides were subsequently subcloned into the LMP vector (Dickins et al; 2005 & 2006). Non-sense shRNAmir and luciferase control constructs in the LMS vector were a kind gift from Dr. Marnie Blewitt (Majewski et al, 2008) and Dr Ross Dickins (unpublished data) respectively. To create retrovirus, 293T cells were transfected as described previously (Majewski et al, 2008). The medium was replaced with DMEM containing 10% FBS and 20% L-cell conditioned medium 24 h after transfection and viral supernatants harvested the following day. Total bone marrow was collected and non-adherent haematopoietic cells were harvested by centrifugation and red blood cells removed by washing in red cell removal buffer (154.4 mM NH4Cl, 0.1 mM EDTA, 12 mM. NaHCO3). Retroviral supernatants were applied to culture dishes pre-treated with 32 μg/ml RetroNectin (Takara Biosciences, Shiga, Japan) and centrifuged for 1 h at 4000 g at 4° C. Bone marrow cells were infected by co-culturing with the virus in the presence of 4 μg/ml 30 polybrene-containing medium for 24 h. […]
Using a Griess assay, NO production was measured in response to 20 ng/ml LPS and 25 μg/ml PolyIC in BMDM infected with non-sense or Spsb1 shRNA at 24 h and 48 h. […]
On the technique in general: Nitrite, measured by Griess reagent, commonly stands in for NO production.

In the case of “Spsb1 shRNA: retroviral shRNAmir construct targeting SPSB1, CCAGATGCAGAGAATAAACTA (SEQ ID NO:84), in LMP vector”, the Spsb1 expression result in data set [1] is on record as “significantly reduced”. For the same substance, the “kinetics of iNOS clearance” value in data set [2] (20 ng/ml LPS or 25 μg/ml PolyIC overnight, stimulus removed) is listed as “essentially unchanged”. Also, the “iNOS amount in degradation experiment” value in data set [2] (20 ng/ml LPS or 25 μg/ml PolyIC overnight, stimulus removed, compared to non-sense) is “increased amount of iNOS”. The “iNOS protein amount during induction timecourse” value in data set [2] (100 ng/ml LPS or 25 μg/ml PolyIC) is “more iNOS protein”. Besides, the “time of first observed iNOS expression post-treatment” value in data set [2] (100 ng/ml LPS or 25 μg/ml PolyIC, non-sense shRNA control 8 h) stood at 6 h. The NO production entry is given as “increase” in data set [3] (24 h, LPS and PolyIC, compared to non-sense); “significant increase” in data set [3] (48 h, LPS, p=0.0446); “increase” in data set [3] (48 h, PolyIC).
